What was measured:
518A2 melanoma cells = assay: Cell cycle analysis by flow cytometry after PI staining; format: cell-based, human; conditions: 24 h; for cell cycle arresting effect: 518A2 cells, FACS
Experimental: The 518A2 melanoma cells (3 mL/well; 5 × 10^4 cells/mL) were grown on 6-well tissue culture plates for 24 h. After treatment with 4d (150, and 200 nM), 4e (0.8, and 1 µM), 4f (2, and 3 µM), or DMSO (control) for another 24 h, cells were fixed (70% EtOH, 24 h, 4 °C), washed with PBS and incubated with propidium iodide (PI; Carl Roth) staining solution (50 µg/mL PI, 0.1% sodium citrate, 50 µg/mL RNase A in PBS) for 30 min at 37 °C. […] The percentages of cells in the different phases of the cell cycle (G1, S and G2/M phase) were determined using the CXP Analysis software (Beckmann Coulter). The percentage of apoptotic cells was derived from sub-G1 peaks. Data was normally distributed for each group (Shapiro–Wilk test, p > 0.05). Since homogeneity of variance (Levene’s test, p < 0.05) was violated, a correction was calculated for Anova (Welch test).

[1] = test system: Ea.Hy926 endothelial hybrid cells; assay: MTT assay, Ea.Hy926 endothelial hybrid cells; format: cell-based; conditions: Homo sapiens, EA.hy 926, read-out: IC50 Ea.Hy926 (72 h)
Experimental: HT-29 (ACC-299), HCT-116 (ACC-581) and DLD-1 (ACC-278) colon carcinoma, MCF-7 (ACC-115) breast carcinoma, KB-V1 (ACC-149), 518A2 (Department of Radiotherapy and Radiobiology, University Hospital Vienna) melanoma and Ea.Hy926 (ATCC no. CRL-2922) HUVEC derived endothelial hybrid cells line were grown in Dulbecco’s Modified Eagle Medium (DMEM; Biochrom), high glucose supplemented with 10% (v/v) fetal bovine serum (FBS; Biochrom.) and 1% (v/v) Antibiotic-Antimycotic solution (anti-anti; Thermo Scientific). HDFa human dermal fibroblasts (ATCC: PCS-201-012™) were grown in DMEM supplemented with 10% FBS, 1% anti-anti and 2 mM glutamine. The cells were incubated at 37 °C, 5% CO2, 95% humidified atmosphere. By repeated addition of topotecan or vinblastine at the maximum tolerated dose to the cell medium of MCF-7 and KB-V1 cells, the cells were rendered multidrug-resistant, indicated as MCF-7^Topo and KB-V1^Vbl, respectively. They were serially passaged following trypsinization by using 0.05% trypsin/0.02% EDTA (Biochrom). Mycoplasma contamination was routinely monitored, and only mycoplasma–free cultures were used.
MTT [3-(4,5-dimethylthiazol-2-yl)-2,5-diphenyltetrazolium bromide] (ABCR) was used to determine the cytotoxicity of test compounds as previously described. Briefly, HDFa human dermal fibroblasts and Ea.Hy926 endothelial hybrid cells (both 1 × 10^5 cells/mL, 100 µL/well), 518A2 melanoma, KB-V1^Vbl cervix carcinoma, MCF-7^Topo breast carcinoma, HT-29, DLD-1 and HCT-116 colon carcinoma (all 5 × 10^4 cells/mL, 100 µL/well) were grown in 96-well culture plates for 24 h. Then, various concentrations of the test compounds were added and the cells were incubated for 24-72 h at 37 °C. After adding 12.5 µL of a 0.5% MTT solution in PBS (final concentration 0.05%) to cell medium, microplates were incubated for 2 h and subsequently swiftly turned to discard the medium. The precipitate of formazan crystals was then dissolved in a 10% solution of SDS in DMSO containing 0.6% acetic acid. To ensure complete dissolution of formazan, microplates were incubated for at least 4 h at 37 °C. Finally, the absorbance at λ = 570 nm (formazan) and 630 nm (background) was measured using a microplate reader (Tecan F200). All experiments were carried out in quadruplicate and the percentage of viable cells was calculated as the mean ± SD with controls set to 100%. Selected graphs of MTT assays can be found in the Supporting Information (Figure S8).

COc1ccc(-c2ocnc2-c2cc(Br)c(OC)c(OC)c2)cc1OCCCC(=O)NO [4d, N-Hydroxy-4-[1-methoxy-4-(4’-(3’’-bromo-4’’,5’’-dimethoxyphenyl)oxazol-5’-yl)-2-phenoxy]butanamide]
cells in G1 (518A2 melanoma cells; 0.2 µM): 33.9 ± 3.4% | cells in G2/M (518A2 melanoma cells; 0.2 µM): 35.4 ± 2.4% | cells in S (518A2 melanoma cells; 0.2 µM): 16.3 ± 1.1% | cells in Sub-G1 (518A2 melanoma cells; 0.2 µM): 14.4 ± 2.8% | cell cycle arresting effect (518A2 melanoma cells): accumulation of 518A2 cells in G2/M phase | IC50 [1]: 18 ± 4 nM

COc1ccc(-c2ocnc2-c2cc(Br)c(OC)c(OC)c2)cc1OCCCCC(=O)NO [4e, N-Hydroxy-5-[1-methoxy-4-(4’-(3’’-bromo-4’’,5’’-dimethoxyphenyl)oxazol-5’-yl)-2-phenoxy]pentanamide]
cells in G1 (518A2 melanoma cells; 0.8 µM): 43.1 ± 1.3% | cells in G2/M (518A2 melanoma cells; 0.8 µM): 32.6 ± 1.7% | cells in S (518A2 melanoma cells; 0.8 µM): 19.2 ± 0.7% | cells in Sub-G1 (518A2 melanoma cells; 0.8 µM): 5.1 ± 1.2% | cells in G1 (518A2 melanoma cells; 1 µM): 35.4 ± 1.1% | cells in G2/M (518A2 melanoma cells; 1 µM): 34.9 ± 3.5% | cells in S (518A2 melanoma cells; 1 µM): 19.0 ± 0.3% | cells in Sub-G1 (518A2 melanoma cells; 1 µM): 10.8 ± 4.4% | cell cycle arresting effect (518A2 melanoma cells): accumulation of 518A2 cells in G2/M phase | IC50 [1]: 660 ± 10 nM

COc1ccc(-c2ocnc2-c2cc(Br)c(OC)c(OC)c2)cc1OCCCCCC(=O)NO [4f, N-Hydroxy-6-[1-methoxy-4-(4’-(3’’-bromo-4’’,5’’-dimethoxyphenyl)oxazol-5’-yl)-2-phenoxy]hexanamide]
cells in G1 (518A2 melanoma cells; 2 µM): 53.9 ± 0.8% | cells in G2/M (518A2 melanoma cells; 2 µM): 22.2 ± 0.5% | cells in S (518A2 melanoma cells; 2 µM): 18.3 ± 0.7% | cells in Sub-G1 (518A2 melanoma cells; 2 µM): 5.6 ± 0.8% | cells in G1 (518A2 melanoma cells; 3 µM): 54.2 ± 0.5% | cells in G2/M (518A2 melanoma cells; 3 µM): 22.5 ± 0.3% | cells in S (518A2 melanoma cells; 3 µM): 16.9 ± 0.6% | cells in Sub-G1 (518A2 melanoma cells; 3 µM): 6.3 ± 0.9% | cell cycle arresting effect (518A2 melanoma cells): induced a G1 phase arrest | IC50 [1]: 410 ± 40 nM

Reference: PMC6359144 (International Journal of Molecular Sciences, 2019)
